We go through one compound from patent US20220331303A1, “USE OF AN OREXIN 2 RECEPTOR AGONIST FOR THE TREATMENT OF EXCESSIVE SLEEPINESS” (Takeda Pharmaceutical Company Limited, priority 2019, published 2022).

Data set [1] deals with subjects with obstructive sleep apnea. The experiment in a line: Safety/tolerability of single dose in subjects with OSA. Format: in vivo, human. The note with it: single doses 44 mg and 112 mg, infusion over 9 hours, OSA patients. The source says:
The purpose of the study was to evaluate the pharmacokinetics (PK), pharmacodynamics (PD), safety and tolerability of a single intravenous (IV) dose of Compound A in adults who have been diagnosed with obstructive sleep apnea (OSA) and who are experiencing excessive daytime sleepiness (EDS) despite adequate use of CPAP. Twenty-five patients were randomized, and 23 patients completed the study. All patients at entry were having EDS despite being adequately controlled by CPAP for their sleep apnea.
On Day 1 of Treatment Period 1, all eligible subjects were randomized and received the first dose of study drug. Compound A or placebo was administered as a single 9-hour IV infusion commencing at approximately 08:00. On each dosing day (Study Days 1, 3, and 5), 40-minute MWT sessions were performed at 2, 4, 6, and 8 hours after the start of the infusion. There was a minimum 24-hour washout interval between the end of the infusion and the commencement of treatment in subsequent treatment periods to allow for complete elimination of the preceding treatment effect. […] Blood samples for determination of Compound A plasma concentrations were collected predose and at specified time points postdose, Safety assessments were recorded. During the study, AEs were recorded, clinical laboratory tests, vital signs, and safety ECGs were obtained. […]

Data set [2] shares this test system. The experiment in a line: KSS in subjects with OSA experiencing EDS despite CPAP. Format: in vivo, human. On the procedure: On Day 1 of Treatment Period 1, all eligible subjects were randomized and received the first dose of study drug. Compound A or placebo was administered as a single 9-hour IV infusion commencing at approximately 08:00. On each dosing day (Study Days 1, 3, and 5), 40-minute MWT sessions were performed at 2, 4, 6, and 8 hours after the start of the infusion. There was a minimum 24-hour washout interval between the end of the infusion and the commencement of treatment in subsequent treatment periods to allow for complete elimination of the preceding treatment effect. The KSS and PVT were collected per the Schedule of Study Procedures. Blood samples for determination of Compound A plasma concentrations were collected predose and at specified time points postdose, Safety assessments were recorded. During the study, AEs were recorded, clinical laboratory tests, vital signs, and safety ECGs were obtained. Study Days 2, 4, and 6 were washout days. Subjects were discharged from the unit following completion of study exit procedures in the afternoon of Study Day 6 (Day 2 of Treatment Period 3). Subjects were contacted by telephone approximately 7 days (±2 days) following unit discharge for a safety check.

`COC(=O)N1CCC[C@H](NS(C)(=O)=O)[C@@H]1CO[C@H]1CC[C@@H](c2ccccc2)CC1` [Compound A, methyl (2R,3S)-3-((methylsulfonyl)amino)-2-(((cis-4-phenylcyclohexyl)oxy)methyl)piperidine-1-carboxylate]: the Safety and tolerability entry in data set [1] was “safe and well tolerated”. The “Mean placebo-adjusted decrease in KSS” value is recorded as −1.6 in data set [2] (Compound A 44 mg) and −2.4 in data set [2] (Compound A 112 mg).
